{
  "source": "paper PMC6764291",
  "about": "(Frontiers in Oncology, 2019)",
  "key": {"wt p53 tumors": {"tested_on": "wt p53 tumors", "conditions": "mice, PM2 combined with radiotherapy; cited from earlier work"}, "cleaved caspase-3 [1]": {"tested_on": "cleaved caspase-3", "experiment": "Western Blot cleaved caspase-3 expression, UM-SCC-74B", "assay_type": "cell-based, human", "method": "(§1) Cells were irradiated using ^137Cs gamma-ray photons at a dose-rate of ~1 Gy/min (Best Theratronics Gammacell® 40Exactor, Springfield, USA).\n(§2) Whole-cell lysates were prepared according to standard protocols. Protein concentrations were measured using a DeNovix DS-11 spectrophotometer (DeNovix Inc., Wilmington, DE, USA). Samples were separated on 4–12% Bis-Tris SDS gels and transferred to a nitrocellulose membrane (ThermoFisher Scientific, Uppsala, Sweden) by wet-transfer blotting. The membrane was blocked for 1 h in PBS with 5% BSA before incubation with primary antibodies targeting p53, caspase-3, NaK-ATPase and GLB1 (DO-1 (ab1101), ab13847, ab76020 and ab128993, AbCam, Cambridge, UK) and β-actin (A5441, Sigma Aldrich Sweden, Stockholm, Sweden) at 4°C overnight. After washing with PBS with 1% Tween-20, the membrane was incubated with respective and species-specific Horse Radish Peroxidase-labeled secondary antibody (ThermoFisher Scientific, Waltham, MA, USA) and stained with electro-chemiluminescent solution (Immobilon, Millipore, Bedford, USA)."}, "UM-SCC-74B": {"tested_on": "UM-SCC-74B", "experiment": "XTT cell viability, UM-SCC-74B", "assay_type": "cell-based, human", "method": "(§3) The human squamous cell carcinoma cell lines UM-SCC-74A and UM-SCC-74B were kindly provided by Professor TE Carey (University of Michigan, USA) and cultured in Dulbecco's Modified Eagle Medium (DMEM) with 10% fetal bovine serum, 1% L-glutamine, 1% antibiotics (100 IU penicillin and 100 μg/ml streptomycin) as well as 1% non-essential amino acids (all from Biochrom Kg, Berlin, Germany). UT-SCC-45 (kindly provided by Dr. R. Grenman, Turku University Central Hospital, Finland) was cultured in DMEM with the abovementioned additives. HCT116 and A431 were purchased from American Type Culture Collection (Manassas, VA, USA). HCT116 was cultured in McCoy's modified Eagle medium with 10% fetal bovine serum, 1% L-glutamine and 1% antibiotics (100 IU penicillin and 100 μg/ml streptomycin) and A431 was cultured in Ham's F10 with the same additives. H314 was purchased from the European Collection of Authenticated Cell Cultures (Salisbury, UK) in DMEM/Ham's F12 (1:1) with the abovementioned additives. Cells were incubated at 37°C with 5% CO2, and cultivated for no longer than 2 months at a time.\nas §1\n(§4) Five-hundred to ten thousands cells were seeded in flat-bottomed 96-well plates and incubated for 48 h prior to irradiation with 2Gy. […] Cells were incubated at 37° for 4–5 days until 80–90% confluence had been obtained. A mix of XTT Activation Reagent and XTT Reagent was added according to the American Type Culture Collection 30–1011 K protocol (Manassas, VA, USA). Plates were incubated for up to 6 h at 37° and absorbance was measured by using a BioMark Microplate Reader (Bio-Rad Laboratories AB, Solna, Sweden).\n(§5) GraphPad Prism version 6.07 (GraphPad Software, San Diego, USA) was used for data processing and analysis. p-values were determined using unpaired student's t-test for comparison between two groups or one-way ANOVA followed by Tukey's multiple comparisons test, with p < 0.05 (^*), p < 0.01 (^**), p < 0.001 (^***), and p < 0.0001 (^****). For XTT assays cell viability was normalized for irradiated and unirradiated samples separately. […] CDI ≤ 0.7 equaled significant synergistic effect, CDI ≤ 1 equaled additive effect and CDI > 1 equaled antagonistic effect ([29])."}, "HCT116": {"tested_on": "HCT116", "experiment": "Cell cycle analysis by flow cytometry, HCT116", "assay_type": "cell-based", "conditions": "for G2/M-phase / S-phase: viable cells, DAPI", "method": "as §1\n(§6) Cells were collected and fixed in 70% ethanol at 6, 12, 24, 48, 72, and 96 h post-irradiation and stored at −20°C. For cell cycle analyses, 6, 12, 24, and 48 h samples were rehydrated and washed twice with PBS and stained with DAPI (Sigma Aldrich Sweden, Stockholm, Sweden) using 1 μg/ml for 30 min. 24, 48, 72, and 96 h samples were stained with caspase-3 and Noxa (ab13847 (1:500) and ab13654 (1:1,000), AbCam, Cambridge, UK) overnight at 4°C, followed by incubation with fluorescent labeled secondary antibodies for 90 min (ab 1:400) at room temperature. Analyses were performed using a BD LSR Fortessa flow cytometer (Becton Dickinson Biosciences, San Jose, USA). Data analyses for cleaved caspase-3 and Noxa were performed with BD FACSDiVa (Becton Dickinson Biosciences, San Jose, USA), while cell cycle analyses of exclusively viable cells were performed using FlowJo (Becton, Dickinson Biosciences, San Jose, USA). Coefficient of variation (CV) values, were below seven for all samples."}, "GLB-1 [2]": {"tested_on": "GLB-1", "experiment": "Western Blot GLB-1 expression, HCT116", "assay_type": "cell-based", "conditions": "2 Gy + 20 μM PM2, n ≥ 3", "method": "as §1, §2"}, "GLB-1 [3]": {"tested_on": "GLB-1", "experiment": "Western Blot GLB-1 expression, UM-SCC-74B", "assay_type": "cell-based, human", "conditions": "2 Gy + 20 μM PM2, 72 h, n ≥ 3", "method": "as §1, §2"}, "UM-SCC-74A": {"tested_on": "UM-SCC-74A", "experiment": "XTT cell viability, UM-SCC-74A", "assay_type": "cell-based, human", "method": "as §3, §1, §4, §5"}, "A431": {"tested_on": "A431", "experiment": "XTT cell viability, A431", "assay_type": "cell-based", "conditions": "n ≥ 4", "method": "The human squamous cell carcinoma cell lines UM-SCC-74A and UM-SCC-74B were kindly provided by Professor TE Carey (University of Michigan, USA) and cultured in Dulbecco's Modified Eagle Medium (DMEM) with 10% fetal bovine serum, 1% L-glutamine, 1% antibiotics (100 IU penicillin and 100 μg/ml streptomycin) as well as 1% non-essential amino acids (all from Biochrom Kg, Berlin, Germany). UT-SCC-45 (kindly provided by Dr. R. Grenman, Turku University Central Hospital, Finland) was cultured in DMEM with the abovementioned additives. HCT116 and A431 were purchased from American Type Culture Collection (Manassas, VA, USA). […]\nFive-hundred to ten thousands cells were seeded in flat-bottomed 96-well plates and incubated for 48 h prior to irradiation with 2Gy. […] Plates were incubated for up to 6 h at 37° and absorbance was measured by using a BioMark Microplate Reader (Bio-Rad Laboratories AB, Solna, Sweden).\nGraphPad Prism version 6.07 (GraphPad Software, San Diego, USA) was used for data processing and analysis. p-values were determined using unpaired student's t-test for comparison between two groups or one-way ANOVA followed by Tukey's multiple comparisons test, with p < 0.05 (^*), p < 0.01 (^**), p < 0.001 (^***), and p < 0.0001 (^****). […]"}, "cleaved caspase-3 [4]": {"tested_on": "cleaved caspase-3", "experiment": "Flow cytometry cleaved caspase-3, UM-SCC-74B", "assay_type": "cell-based, human", "method": "as §1, §6"}, "[5]": {"conditions": "20 μM PM2, 0 Gy, compared to untreated controls"}, "[6]": {"conditions": "Combination 2 Gy + 20 μM PM2, 6 h"}, "[7]": {"conditions": "Combination 2 Gy + 20 μM PM2, 12 h"}, "[8]": {"conditions": "Combination 2 Gy + 20 μM PM2, 24 h"}, "[9]": {"conditions": "Combination 2 Gy + 20 μM PM2, 48 h"}},
  "note": "“Also recorded” adds a separate entry of the source.",
  "data": [
    {"smiles": "CC(=O)N[C@H](C(=O)N[C@@H](CO)C(=O)N[C@@H](Cc1ccccc1)C(=O)N[C@]1(C)CCCCCCC=CCCC[C@@](C)(C(N)=O)NC(=O)[C@H](CC(C)C)NC(=O)[C@H](CC(C)C)NC(=O)[C@H](C)NC(=O)[C@H](Cc2c[nH]c3ccccc23)NC(=O)[C@H](Cc2ccc(O)cc2)NC(=O)[C@H](CCC(=O)O)NC1=O)[C@@H](C)O", "note": "[PM2]", "values": [
      {"measurement": "prolongation of median survival", "setting": "wt p53 tumors", "value": 50, "unit": "%"},
      {"measurement": "increase in cleaved caspase-3 levels", "setting": "cleaved caspase-3 [1]; 20 μM PM2, 72 h, normalized to controls, n ≥ 3", "value": "Four-fold"},
      {"measurement": "cleaved caspase-3 expression", "setting": "cleaved caspase-3 [1]; 20 μM PM2-treated samples, n ≥ 3", "value": "increase in expression"},
      {"measurement": "cleaved caspase-3 expression, combination", "setting": "cleaved caspase-3 [1]; 2 Gy + 20 μM PM2, n ≥ 3", "value": "predominant"},
      {"measurement": "PM2 effect", "setting": "UM-SCC-74B; 0–20 μM PM2, 0 Gy, wild-type p53, HPV negative, n = 6", "value": "decreased significantly the viability and Yes"},
      {"measurement": "average viability reduction", "setting": "UM-SCC-74B; [5]", "value": 90, "unit": "%"},
      {"measurement": "IC50", "setting": "UM-SCC-74B; PM2 alone (0 Gy), 4–5 days, n = 6", "value": 17, "unit": "µM"},
      {"measurement": "lowest PM2 dose with significant decrease of viability", "setting": "UM-SCC-74B; PM2 alone, compared with ~10 μM for HCT116 and UM-SCC-74A", "value": "slightly higher dose"},
      {"measurement": "lowest PM2 dose with significant drop in viability of combination versus PM2-monotherapy", "setting": "UM-SCC-74B; PM2 with 2 Gy EBRT", "value": 10, "unit": "µM"},
      {"measurement": "Significant effect of combination", "setting": "UM-SCC-74B; PM2 with 2 Gy EBRT, n = 6", "value": "most pronounced sensitivity and Yes"},
      {"measurement": "G2/M-phase", "setting": "HCT116; 20 μM PM2 alone, 6 h", "value": 19.4, "unit": "%"},
      {"measurement": "S-phase", "setting": "HCT116; 20 μM PM2 alone, 6 h", "value": 55.8, "unit": "%"},
      {"measurement": "G2/M-phase", "setting": "HCT116; 20 μM PM2 alone, 12 h", "value": 30.1, "unit": "%"},
      {"measurement": "S-phase", "setting": "HCT116; 20 μM PM2 alone, 12 h", "value": 35.1, "unit": "%"},
      {"measurement": "G2/M-phase", "setting": "HCT116; 20 μM PM2 alone, 24 h", "value": 21.1, "unit": "%"},
      {"measurement": "S-phase", "setting": "HCT116; 20 μM PM2 alone, 24 h", "value": 10.7, "unit": "%"},
      {"measurement": "G2/M-phase", "setting": "HCT116; 20 μM PM2 alone, 48 h", "value": 20.6, "unit": "%"},
      {"measurement": "S-phase", "setting": "HCT116; 20 μM PM2 alone, 48 h", "value": 23, "unit": "%"},
      {"measurement": "S-phase reduction / depletion", "setting": "HCT116; 2 Gy + 20 μM PM2", "value": "S-phase reduction occurred as early as 12 h post-treatment; also recorded: S-phase depletion at 24 h post-treatment"},
      {"measurement": "G2/M-phase cells versus untreated controls", "setting": "HCT116; 2 Gy + 20 μM PM2, throughout 48 h", "value": "More than twice as many cells"},
      {"measurement": "G2/M-phase", "setting": "HCT116; [6]", "value": 39.9, "unit": "%"},
      {"measurement": "S-phase", "setting": "HCT116; [6]", "value": 44.9, "unit": "%"},
      {"measurement": "G2/M-phase", "setting": "HCT116; [7]", "value": 53.8, "unit": "%"},
      {"measurement": "S-phase", "setting": "HCT116; [7]", "value": 17.3, "unit": "%"},
      {"measurement": "G2/M-phase", "setting": "HCT116; [8]", "value": 42.7, "unit": "%"},
      {"measurement": "S-phase", "setting": "HCT116; [8]", "value": 5.51, "unit": "%"},
      {"measurement": "G2/M-phase", "setting": "HCT116; [9]", "value": 29.9, "unit": "%"},
      {"measurement": "S-phase", "setting": "HCT116; [9]", "value": 17.5, "unit": "%"},
      {"measurement": "GLB-1 expression versus irradiated and control, combination", "setting": "GLB-1 [2]", "value": "less pronounced and failed to reach significance"},
      {"measurement": "GLB-1 expression, combination versus irradiated", "setting": "GLB-1 [3]", "value": "significant increase"},
      {"measurement": "PM2 effect", "setting": "UM-SCC-74A; 0–20 μM PM2, 0 Gy, wild-type p53, HPV negative, n ≥ 4", "value": "decreased significantly the viability and Yes"},
      {"measurement": "average viability reduction", "setting": "UM-SCC-74A; [5]", "value": 73, "unit": "%"},
      {"measurement": "lowest PM2 dose with significant decrease of viability", "setting": "UM-SCC-74A; PM2 alone", "value": "~ 10 μM"},
      {"measurement": "IC50", "setting": "UM-SCC-74A; PM2 alone (0 Gy), 4–5 days", "value": 16, "unit": "µM"},
      {"measurement": "Significant effect of combination", "setting": "UM-SCC-74A; PM2 with 2 Gy EBRT, n ≥ 4", "value": "Yes"},
      {"measurement": "PM2 effect", "setting": "A431; 0–20 μM PM2, 0 Gy, single base p53 mutation, HPV negative", "value": "did not affect and unaffected and No"},
      {"measurement": "Significant effect of combination", "setting": "A431; PM2 with 2 Gy EBRT", "value": "significantly decreased the viability and significant decrease in viability and Yes"},
      {"measurement": "cleaved caspase-3 expression", "setting": "cleaved caspase-3 [4]; 20 μM PM2, 72 h", "value": "distinct increases"},
      {"measurement": "cleaved caspase-3 increase compared to controls", "setting": "cleaved caspase-3 [4]; 20 μM PM2-treated, peak at 72 h, n ≥ 3", "value": 40, "unit": "fold"},
      {"measurement": "cleaved caspase-3, combination versus PM2 alone", "setting": "cleaved caspase-3 [4]; 2 Gy + 20 μM PM2, p ≤ 0.05", "value": "significantly higher expression levels"}
    ]}
  ]
}
